According to patent EP4810052A2, “HCRHR2 SELECTIVE POLYPEPTIDES” (Gubra A/S, priority 2023, dated 2026):
Where two headings read alike, the source gives them in different places. Starred links: 1 amine or outer side, 2 acyl side, 3 side chain; linkers in the order of their positions; H or OH if unused. Non-standard residues stand in square brackets, D forms with d. Residues, ends and D or L forms follow the SMILES beside them. Groups on a side chain read outwards from the residue. *: point of attachment. C20 diacid = O=C(O)CCCCCCCCCCCCCCCCCCC(=O)*; γGlu = O=C(O)[C@H](CCC(=O)[*:2])N[*:1]; NMeI = CC[C@H](C)[C@H](NC)C(=O)O; Nle = CCCC[C@H](N)C(=O)O; AEEA = NCCOCCOCC(=O)O; Aib = CC(C)(N)C(=O)O

Columns and labels:
pCRHR2 = assay: cAMP potency, transiently transfected CHO-K1 cells, pCRHR2; assay type: cell-based, pig; settings: transiently transfected CHO-K1, average n=3; read-out: Transient cell system EC50 (nM) pCR HR2
Procedure: (§1) Selected peptides were tested for potency on different species (mouse, rat, porcine) using transiently transfected CHO-K1 cells using the general procedure.

PK in minipigs = settings: male, Göttingen, minipig, in vivo; for half-life: read-out: T½ (converted); for bioavailability / Cmax / Tmax: sc; for Cmax / Tmax: 6.0 nmol/kg s.c
Procedure: Pharmacokinetics studies were determined in male Göttingen minipigs from Ellegaard Göttingen Minipigs A/S. Animals were acclimatised for at least 7 days before placed on study. The minipigs had prior to study been surgically implanted with central venous catheters inserted which were used for blood sampling. Animals were housed under a 12/12 h dark-light cycle with ad libitum access to domestic water and animals were fed a commercially standard maintenance diet twice daily.
Test compounds where administrated either as a cassette or as a single compound. Test compounds were administrated by a single intravenous injection or short infusion (5-10 min) through the implanted catheter or a single subcutaneously injection. The subcutaneously injection was given in the mid neck between ear and scapula with a stopper on the needle, allowing 0.5 cm of the needle to be inserted.Plasma concentration-time profiles employing 12-16 sampling points were obtained from each animal. As an example, blood samples were collected on the following times: 0 (predose), 0.17, 0.33, 0.5, 1, 2, 5, 6, 24, 48, 72, 92, 168, 240 and 336 hrs post administration. Approximately 2 mL blood was drawn from the central catheter from each animal at each sampling point. Blood samples were taken in K2 or K3 EDTA tubes. Blood was kept on ice for maximum 30 min before centrifugation (10 min, 4°C, 2000 x g). Approximately 200 µL plasma samples was transferred to a Micronic tube and stored at -20° or lower.
Pharmacokinetics parameters were calculated by non-compartmental analysis (NCA) of the individual plasma concentrations-time profile from the animals. The log-linear trapezoidal method was used for estimation of AUC and AUMC. The terminal T½ was determined as In(2)/λz where λz is the first order rate constant as determined by the terminal log-linear part of the curve.
Plasma concentrations were measured by LC-MSMS using electrospray ionization and multiple reaction monitoring. Calibration standards and quality control (QC) samples were prepared in specie match matrix. 15 µL calibration standards, QC and study samples were extracted by protein precipitation using 60 µL methanol followed by addition of 45 µL milliQ water. Samples were shaken (800 rpm) at room temperature for 5 min before centrifugation (2570×g, 40 min, 4°C) and the supernatant was transferred to a LoBind PCR plate. Samples were analysed on a Thermo Triscend UHPLC system coupled to a Sciex API 6500+ mass spectrometer. Samples were subject to online SPE clean-up on a HLB column (1×50 mm, Waters) before loaded onto a Aeris Peptide XB C18 column (3.6 µm, 100 Å, 2×50 mm, Phenomenex) analytical column. The mobile phases consisted of acetonitrile and milliQ H2O both containing 0.1% V/V formic acid. The flow rate was 0.60 mL/min and the column was kept at room temperature.

pCRHR1 = assay: cAMP potency, transiently transfected CHO-K1 cells, pCRHR1; assay type: cell-based, pig; settings: transiently transfected CHO-K1, average n=3; read-out: Transient cell system EC50 (nM) pCRHR 1
Procedure: as §1

rCRHR2 = target: T1, rCRHR2 (Rattus norvegicus, UniProt P47866); assay: cAMP potency, transiently transfected CHO-K1 cells, rCRHR2; assay type: cell-based; settings: transiently transfected CHO-K1, average n=3; read-out: Transient cell system EC50 (nM) rCRHR 2
T1 construct: DYK (FLAG); host or cells: CHO-K1, transiently transfected
Procedure: as §1

[1] = Size exclusion chromatography for high molecular weight products (HMWP); assay type: physicochemical; settings: for HMWP formation (SEC analysis) T14-T0 (%): 14 days; for HMWP formation (SEC analysis) T28-T0 (%): 28 days
Procedure: Dissolved samples were incubated for at least 2 h at room temperature on a rocking table. The main peak purity at time zero (T0) was determined using reversed phase chromatography. The samples were incubated at 40°C for 14 days (T14) and 28 days (T28). The samples were analyzed with reversed phase chromatography and size exclusion chromatography.
Size exclusion chromatography (SEC) was used as an analysis for the formation of high molecular weight products (HMWP, covalent dimers, trimers etc.,). SEC analyses was performed on Thermo Dionex Ultimate UHPLC system with UV detection at 215 nm) equipped with a SEC column (Waters BEH 125Å, 1.7 µm, 300mm x 4.6). Analysis was performed by isocratic elution using 60% buffer B (0.1% TFA in 5:95 H2O: acetonitrile) in buffer A (0.1% TFA in 95:5 H2O: acetonitrile) at a column temperature of 60° C over 20 min. Flowrate was 0.3 mL/min.
Chromatograms were integrated as HMWP (all peaks eluting before the main peak), main peak (assuming this is monomeric peptide) and if relevant LMWP (low molecular weight products, all peaks eluting after main peak). The amount of HMWP was reported as area relative to total area in percent.

T1 sequence (P47866 whole entry): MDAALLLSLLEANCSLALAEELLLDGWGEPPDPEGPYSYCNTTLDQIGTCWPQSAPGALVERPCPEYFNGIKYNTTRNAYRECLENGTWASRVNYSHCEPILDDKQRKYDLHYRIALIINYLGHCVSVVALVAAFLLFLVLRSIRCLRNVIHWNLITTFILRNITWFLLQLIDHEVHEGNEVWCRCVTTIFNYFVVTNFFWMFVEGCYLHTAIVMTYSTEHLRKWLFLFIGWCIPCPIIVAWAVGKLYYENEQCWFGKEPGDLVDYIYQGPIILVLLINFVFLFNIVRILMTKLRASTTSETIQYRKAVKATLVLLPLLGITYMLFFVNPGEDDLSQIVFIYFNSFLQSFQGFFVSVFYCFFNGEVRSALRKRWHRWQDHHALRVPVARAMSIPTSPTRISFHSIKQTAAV

## CCCC[C@H](NC(=O)[C@@H](NC(=O)[C@H](CCC(=O)O)NC(=O)[C@H](C)NC(=O)[C@H](CC(N)=O)NC(=O)C(C)(C)NC(=O)[C@H](CCCCNC(=O)COCCOCCNC(=O)COCCOCCNC(=O)CC[C@H](NC(=O)CC[C@H](NC(=O)CCCCCCCCCCCCCCCCCCC(=O)O)C(=O)O)C(=O)O)NC(=O)[C@H](C)NC(=O)[C@H](CCC(N)=O)NC(=O)[C@H](CCC(=O)O)NC(=O)[C@H](CCCNC(=N)N)NC(=O)[C@H](C)NC(=O)[C@H](C)NC(=O)[C@H](CCCNC(=N)N)NC(=O)[C@H](C)NC(=O)[C@H](CCCNC(=N)N)NC(=O)[C@H](C)NC(=O)[C@H](CCC(N)=O)NC(=O)[C@H](CO)NC(=O)[C@H](CC(C)C)NC(=O)[C@H](CC(C)C)NC(=O)[C@@H](NC(=O)[C@H](CCC(N)=O)NC(=O)[C@H](CC(C)C)NC(=O)[C@H](CC(C)C)NC(=O)CNC(=O)[C@@H](NC(=O)[C@@H]1CCCN1C(=O)[C@@H](NC(=O)[C@H](CC(=O)O)NC(=O)[C@H](CC(C)C)NC(=O)[C@H](CO)NC(=O)[C@H](CC(C)C)NC(=O)[C@@H](NC(=O)[C@@H]1CCCN1)C(C)C)C(C)C)[C@@H](C)CC)[C@@H](C)CC)[C@@H](C)CC)C(=O)N[C@@H](C)C(=O)N[C@@H](CCC(=O)O)C(=O)N[C@H](C(N)=O)C(C)C [SEQ ID NO: 238] (H-PVLSLDVPIGLLQILLSQARARAAREQAK([AEEA-AEEA-γGlu-γGlu-C20 diacid])[Aib]NAEI[Nle]AEV-NH2)
pCRHR2
  EC50: 0.015 nM
PK in minipigs; iv, Pig, 5.8 nmol/kg i.v.
  half-life: 212 h
PK in minipigs
  bioavailability: 86%
PK in minipigs; Pig
  Cmax: 44 nM
  Tmax: 48 h
pCRHR1
  EC50: > 5000 nM
rCRHR2
  EC50: 0.067 nM
[1]; pH 7.0, 40°C
  HMWP formation (SEC analysis) T14-T0 (%): 0.3%
  HMWP formation (SEC analysis) T28-T0 (%): 0.5%
[1]; pH 7.5, 40°C
  HMWP formation (SEC analysis) T14-T0 (%): 0.4%
  HMWP formation (SEC analysis) T28-T0 (%): 0.4%
[1]; pH 8.0, 40°C
  HMWP formation (SEC analysis) T14-T0 (%): -0.1%
  HMWP formation (SEC analysis) T28-T0 (%): 0.2%

## CCCC[C@H](NC(=O)[C@@H](NC(=O)[C@H](CCC(=O)O)NC(=O)C(C)(C)NC(=O)[C@H](CC(N)=O)NC(=O)[C@@H](NC(=O)[C@H](CCCCNC(=O)COCCOCCNC(=O)COCCOCCNC(=O)CC[C@H](NC(=O)CC[C@H](NC(=O)CCCCCCCCCCCCCCCCCCC(=O)O)C(=O)O)C(=O)O)NC(=O)[C@H](C)NC(=O)[C@H](CCC(N)=O)NC(=O)[C@H](CCC(=O)O)NC(=O)[C@H](CCCNC(=N)N)NC(=O)[C@H](C)NC(=O)[C@H](C)NC(=O)[C@H](CCCNC(=N)N)NC(=O)[C@H](C)NC(=O)[C@H](CCCNC(=N)N)NC(=O)[C@H](C)NC(=O)[C@H](CCC(N)=O)NC(=O)[C@H](CO)NC(=O)[C@H](CC(C)C)NC(=O)[C@H](CC(C)C)NC(=O)[C@@H](NC(=O)[C@H](CCC(N)=O)NC(=O)[C@H](CC(C)C)NC(=O)[C@H](CC(C)C)NC(=O)CNC(=O)[C@@H](NC(=O)[C@@H]1CCCN1C(=O)[C@@H](NC(=O)[C@H](CC(=O)O)NC(=O)[C@H](CC(C)C)NC(=O)[C@H](CO)NC(=O)[C@H](CC(C)C)NC(=O)[C@@H](NC(=O)[C@@H](NC)[C@@H](C)CC)C(C)C)C(C)C)[C@@H](C)CC)[C@@H](C)CC)[C@@H](C)O)[C@@H](C)CC)C(=O)N[C@@H](C)C(=O)N[C@@H](CCC(=O)O)C(=O)N[C@H](C(N)=O)C(C)C [SEQ ID NO: 215] (H-[NMeI]VLSLDVPIGLLQILLSQARARAAREQAK([AEEA-AEEA-γGlu-γGlu-C20 diacid])TN[Aib]EI[Nle]AEV-NH2)
pCRHR2
  EC50: 0.017 nM
PK in minipigs; iv, Pig, 4.2 nmol/kg i.v.
  clearance: 7.2 mL/day/kg
  half-life: 156 h
PK in minipigs
  bioavailability: 68%
PK in minipigs; Pig
  Cmax: 38 nM
  Tmax: 24 h
pCRHR1
  EC50: > 1000 nM
rCRHR2
  EC50: 0.072 nM
[1]; pH 7.0, 40°C
  HMWP formation (SEC analysis) T14-T0 (%): -0.3%
  HMWP formation (SEC analysis) T28-T0 (%): -0.3%
[1]; pH 7.5, 40°C
  HMWP formation (SEC analysis) T14-T0 (%): 0.1%
  HMWP formation (SEC analysis) T28-T0 (%): 0.3%
[1]; pH 8.0, 40°C
  HMWP formation (SEC analysis) T14-T0 (%): 0.0%
  HMWP formation (SEC analysis) T28-T0 (%): -0.1%
